{"source": "ChEMBL document CHEMBL5465560", "about": "“Selectivity Literature for EUbOPEN Chemogenomic Library” (2024)", "key": {"SRSF protein kinase 1": {"molecular_target": "SRSF protein kinase 1 (Homo sapiens, UniProt Q96SB4)", "sequence (Q96SB4 whole entry)": "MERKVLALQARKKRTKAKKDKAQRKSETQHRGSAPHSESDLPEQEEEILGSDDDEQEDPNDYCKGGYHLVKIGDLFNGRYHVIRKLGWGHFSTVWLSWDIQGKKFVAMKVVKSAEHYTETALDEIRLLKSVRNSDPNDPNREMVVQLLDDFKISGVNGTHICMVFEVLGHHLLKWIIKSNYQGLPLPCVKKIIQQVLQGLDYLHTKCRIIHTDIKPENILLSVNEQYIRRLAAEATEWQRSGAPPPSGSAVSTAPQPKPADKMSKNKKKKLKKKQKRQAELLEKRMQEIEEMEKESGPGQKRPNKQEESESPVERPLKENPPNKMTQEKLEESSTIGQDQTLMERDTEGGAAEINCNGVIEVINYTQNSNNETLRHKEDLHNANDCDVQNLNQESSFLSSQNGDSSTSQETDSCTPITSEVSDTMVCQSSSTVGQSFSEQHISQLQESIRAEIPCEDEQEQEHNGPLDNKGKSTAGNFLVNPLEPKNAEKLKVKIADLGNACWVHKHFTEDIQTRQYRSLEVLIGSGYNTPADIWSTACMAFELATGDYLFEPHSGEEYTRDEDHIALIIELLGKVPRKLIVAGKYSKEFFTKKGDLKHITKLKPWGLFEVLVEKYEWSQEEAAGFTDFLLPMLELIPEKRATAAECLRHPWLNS", "assay": "Selectivity interaction (Kinase panel (Z-LYTE Assay)) EUB0001632a SRPK1", "conditions": "at 10 µM"}, "[1]": {"molecular_target": "Phosphatidylinositol 4-kinase beta (Homo sapiens, UniProt Q9UBF8)", "sequence (Q9UBF8 2-816 limits assumed)": "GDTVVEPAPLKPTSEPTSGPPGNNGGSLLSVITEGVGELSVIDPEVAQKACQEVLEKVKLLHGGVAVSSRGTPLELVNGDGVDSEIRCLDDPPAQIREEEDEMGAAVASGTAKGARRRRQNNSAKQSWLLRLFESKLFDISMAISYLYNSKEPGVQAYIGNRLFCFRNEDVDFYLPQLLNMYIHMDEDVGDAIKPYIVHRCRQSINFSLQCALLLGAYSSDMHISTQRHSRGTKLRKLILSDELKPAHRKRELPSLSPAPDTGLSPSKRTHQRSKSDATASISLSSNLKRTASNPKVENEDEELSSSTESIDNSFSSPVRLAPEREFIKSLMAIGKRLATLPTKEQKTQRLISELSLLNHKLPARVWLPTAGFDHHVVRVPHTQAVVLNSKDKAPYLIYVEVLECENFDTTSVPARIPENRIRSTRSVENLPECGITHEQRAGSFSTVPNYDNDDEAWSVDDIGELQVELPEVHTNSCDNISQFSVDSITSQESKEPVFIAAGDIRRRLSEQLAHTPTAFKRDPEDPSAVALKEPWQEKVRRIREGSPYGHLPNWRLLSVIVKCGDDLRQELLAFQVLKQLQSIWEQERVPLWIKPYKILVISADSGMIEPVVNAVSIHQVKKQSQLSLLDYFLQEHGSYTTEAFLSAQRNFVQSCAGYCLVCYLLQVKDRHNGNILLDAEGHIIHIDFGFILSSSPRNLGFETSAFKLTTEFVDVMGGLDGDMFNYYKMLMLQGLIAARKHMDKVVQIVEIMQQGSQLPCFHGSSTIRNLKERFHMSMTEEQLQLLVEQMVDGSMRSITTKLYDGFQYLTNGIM", "assay": "Selectivity interaction (ActivX KiNativ screen (kinase selectivity in THP-1 cell lysates)) EUB0000639a PI4KB", "format": "subcellular", "conditions": "lysate, at 5 µM"}, "[2]": {"molecular_target": "T1, Dual specificity mitogen-activated protein kinase kinase 4 (Homo sapiens) (UniProt P45985)", "T1 sequence (whole entry)": "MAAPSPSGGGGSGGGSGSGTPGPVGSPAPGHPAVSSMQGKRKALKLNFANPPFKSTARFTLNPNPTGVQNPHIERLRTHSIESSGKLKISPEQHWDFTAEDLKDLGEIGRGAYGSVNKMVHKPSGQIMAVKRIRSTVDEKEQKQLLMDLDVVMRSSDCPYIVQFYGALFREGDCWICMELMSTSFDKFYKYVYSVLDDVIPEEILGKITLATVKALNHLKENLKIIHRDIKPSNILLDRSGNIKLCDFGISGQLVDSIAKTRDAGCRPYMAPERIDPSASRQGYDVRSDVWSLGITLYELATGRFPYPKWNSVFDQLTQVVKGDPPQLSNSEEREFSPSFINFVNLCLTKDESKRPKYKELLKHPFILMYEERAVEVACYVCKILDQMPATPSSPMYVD", "assay": "Selectivity interaction (ActivX KiNativ screen (kinase selectivity in THP-1 cell lysates)) EUB0000639a MAP2K4", "format": "subcellular", "conditions": "lysate, at 0.01 µM"}, "[3]": {"molecular_target": "T2, Aurora kinase A (Homo sapiens) (UniProt O14965)", "T2 sequence (whole entry)": "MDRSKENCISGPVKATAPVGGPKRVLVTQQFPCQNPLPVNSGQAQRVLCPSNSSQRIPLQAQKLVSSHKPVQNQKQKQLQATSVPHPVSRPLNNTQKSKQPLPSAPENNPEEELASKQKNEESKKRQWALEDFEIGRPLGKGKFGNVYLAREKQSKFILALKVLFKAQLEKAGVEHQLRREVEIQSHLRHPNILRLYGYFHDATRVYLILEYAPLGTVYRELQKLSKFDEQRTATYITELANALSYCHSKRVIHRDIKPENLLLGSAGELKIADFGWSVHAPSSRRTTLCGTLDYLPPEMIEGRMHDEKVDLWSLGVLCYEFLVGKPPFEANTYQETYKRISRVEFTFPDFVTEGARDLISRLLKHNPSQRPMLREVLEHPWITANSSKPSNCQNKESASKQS", "assay": "Selectivity interaction (ActivX KiNativ screen (kinase selectivity in THP-1 cell lysates)) EUB0000639a STK6", "format": "subcellular", "conditions": "lysate, at 0.04 µM"}, "[4]": {"system": "Epidermal growth factor receptor (Homo sapiens), P00533 [UNDEFINED MUTATION]", "sequence (P00533 whole entry, looked up, change not shown)": "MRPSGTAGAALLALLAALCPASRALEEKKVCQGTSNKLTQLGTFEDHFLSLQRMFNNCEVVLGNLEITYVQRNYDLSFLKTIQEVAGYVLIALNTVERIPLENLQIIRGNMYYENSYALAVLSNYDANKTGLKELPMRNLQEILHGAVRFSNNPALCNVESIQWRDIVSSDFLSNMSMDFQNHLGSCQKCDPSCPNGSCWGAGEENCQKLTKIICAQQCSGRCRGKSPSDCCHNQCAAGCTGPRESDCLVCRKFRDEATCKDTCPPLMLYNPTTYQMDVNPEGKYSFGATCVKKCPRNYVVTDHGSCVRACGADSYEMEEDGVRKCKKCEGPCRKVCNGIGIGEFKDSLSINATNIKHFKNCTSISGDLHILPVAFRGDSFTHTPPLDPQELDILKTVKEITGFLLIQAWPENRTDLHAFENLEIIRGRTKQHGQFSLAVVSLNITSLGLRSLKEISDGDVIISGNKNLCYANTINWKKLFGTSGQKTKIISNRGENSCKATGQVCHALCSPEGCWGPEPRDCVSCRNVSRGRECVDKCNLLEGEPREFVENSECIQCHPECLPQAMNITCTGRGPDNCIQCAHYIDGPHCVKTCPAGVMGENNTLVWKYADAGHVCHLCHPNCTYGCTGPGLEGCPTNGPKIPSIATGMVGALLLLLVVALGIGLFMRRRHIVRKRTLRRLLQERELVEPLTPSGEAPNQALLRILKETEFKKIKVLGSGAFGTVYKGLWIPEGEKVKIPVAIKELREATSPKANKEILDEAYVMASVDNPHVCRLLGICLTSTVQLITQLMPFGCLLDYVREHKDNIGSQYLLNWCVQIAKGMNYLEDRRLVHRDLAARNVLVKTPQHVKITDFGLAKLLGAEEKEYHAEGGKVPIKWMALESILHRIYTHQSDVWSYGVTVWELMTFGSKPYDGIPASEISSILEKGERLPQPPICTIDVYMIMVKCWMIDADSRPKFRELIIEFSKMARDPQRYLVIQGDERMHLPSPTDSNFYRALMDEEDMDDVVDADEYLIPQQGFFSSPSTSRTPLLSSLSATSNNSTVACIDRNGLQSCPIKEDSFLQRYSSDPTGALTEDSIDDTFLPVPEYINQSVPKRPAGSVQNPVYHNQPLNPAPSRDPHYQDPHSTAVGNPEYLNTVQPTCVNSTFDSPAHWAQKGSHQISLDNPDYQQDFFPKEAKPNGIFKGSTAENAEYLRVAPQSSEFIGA", "assay": "Selectivity interaction (KinomeScan (DiscoverX)) EUB0000607a EGFR", "conditions": "at 10 µM"}, "[5]": {"molecular_target": "Testis-specific serine/threonine-protein kinase 4 (Homo sapiens) (UniProt Q6SA08)", "sequence (Q6SA08 whole entry)": "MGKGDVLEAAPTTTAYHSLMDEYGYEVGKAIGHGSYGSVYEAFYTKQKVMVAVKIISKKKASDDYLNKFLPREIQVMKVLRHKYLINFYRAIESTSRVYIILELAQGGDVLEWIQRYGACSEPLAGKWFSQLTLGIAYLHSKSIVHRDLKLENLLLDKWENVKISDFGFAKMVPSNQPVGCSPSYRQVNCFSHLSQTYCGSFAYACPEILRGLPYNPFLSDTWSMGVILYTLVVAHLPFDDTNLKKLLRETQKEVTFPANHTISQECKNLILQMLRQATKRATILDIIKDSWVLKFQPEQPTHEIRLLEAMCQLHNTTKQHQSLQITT", "assay": "Selectivity interaction (Kinase panel (Eurofins)) EUB0001564a TSSK4", "conditions": "at 1 µM"}, "[6]": {"molecular_target": "T3, Ephrin type-B receptor 6 (Homo sapiens) (UniProt O15197)", "T3 sequence (whole entry)": "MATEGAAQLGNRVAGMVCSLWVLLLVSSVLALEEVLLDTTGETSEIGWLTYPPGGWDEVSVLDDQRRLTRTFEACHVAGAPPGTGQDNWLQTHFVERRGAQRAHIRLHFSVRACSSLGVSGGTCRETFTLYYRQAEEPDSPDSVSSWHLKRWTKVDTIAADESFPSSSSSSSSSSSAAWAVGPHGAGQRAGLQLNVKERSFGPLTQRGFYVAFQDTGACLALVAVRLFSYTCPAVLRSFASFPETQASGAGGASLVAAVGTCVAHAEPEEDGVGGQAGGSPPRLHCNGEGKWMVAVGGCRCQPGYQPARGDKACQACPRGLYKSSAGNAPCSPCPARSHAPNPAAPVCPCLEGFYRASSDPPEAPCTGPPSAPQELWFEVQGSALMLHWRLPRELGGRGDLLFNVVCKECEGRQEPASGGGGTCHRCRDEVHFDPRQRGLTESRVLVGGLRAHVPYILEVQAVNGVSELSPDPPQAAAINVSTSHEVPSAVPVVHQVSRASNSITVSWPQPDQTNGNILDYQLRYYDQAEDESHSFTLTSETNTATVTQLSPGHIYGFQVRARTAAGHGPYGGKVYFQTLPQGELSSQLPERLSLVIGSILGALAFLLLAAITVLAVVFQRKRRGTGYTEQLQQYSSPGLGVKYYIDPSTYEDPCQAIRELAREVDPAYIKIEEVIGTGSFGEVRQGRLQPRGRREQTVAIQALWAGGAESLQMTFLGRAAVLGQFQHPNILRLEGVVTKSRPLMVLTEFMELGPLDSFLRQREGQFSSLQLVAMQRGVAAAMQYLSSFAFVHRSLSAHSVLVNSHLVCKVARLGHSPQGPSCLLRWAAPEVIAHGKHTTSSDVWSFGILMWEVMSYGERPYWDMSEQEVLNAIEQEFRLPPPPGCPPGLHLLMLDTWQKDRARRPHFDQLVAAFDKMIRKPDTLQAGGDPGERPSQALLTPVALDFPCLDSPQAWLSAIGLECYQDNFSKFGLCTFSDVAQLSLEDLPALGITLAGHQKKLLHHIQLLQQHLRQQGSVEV", "assay": "Selectivity interaction (KinomeScan (DiscoverX)) EUB0000618a EPHB6", "conditions": "at 10 µM"}, "[7]": {"molecular_target": "Ephrin type-A receptor 7 (Homo sapiens) (UniProt Q15375)", "sequence (Q15375 28-998 limits assumed)": "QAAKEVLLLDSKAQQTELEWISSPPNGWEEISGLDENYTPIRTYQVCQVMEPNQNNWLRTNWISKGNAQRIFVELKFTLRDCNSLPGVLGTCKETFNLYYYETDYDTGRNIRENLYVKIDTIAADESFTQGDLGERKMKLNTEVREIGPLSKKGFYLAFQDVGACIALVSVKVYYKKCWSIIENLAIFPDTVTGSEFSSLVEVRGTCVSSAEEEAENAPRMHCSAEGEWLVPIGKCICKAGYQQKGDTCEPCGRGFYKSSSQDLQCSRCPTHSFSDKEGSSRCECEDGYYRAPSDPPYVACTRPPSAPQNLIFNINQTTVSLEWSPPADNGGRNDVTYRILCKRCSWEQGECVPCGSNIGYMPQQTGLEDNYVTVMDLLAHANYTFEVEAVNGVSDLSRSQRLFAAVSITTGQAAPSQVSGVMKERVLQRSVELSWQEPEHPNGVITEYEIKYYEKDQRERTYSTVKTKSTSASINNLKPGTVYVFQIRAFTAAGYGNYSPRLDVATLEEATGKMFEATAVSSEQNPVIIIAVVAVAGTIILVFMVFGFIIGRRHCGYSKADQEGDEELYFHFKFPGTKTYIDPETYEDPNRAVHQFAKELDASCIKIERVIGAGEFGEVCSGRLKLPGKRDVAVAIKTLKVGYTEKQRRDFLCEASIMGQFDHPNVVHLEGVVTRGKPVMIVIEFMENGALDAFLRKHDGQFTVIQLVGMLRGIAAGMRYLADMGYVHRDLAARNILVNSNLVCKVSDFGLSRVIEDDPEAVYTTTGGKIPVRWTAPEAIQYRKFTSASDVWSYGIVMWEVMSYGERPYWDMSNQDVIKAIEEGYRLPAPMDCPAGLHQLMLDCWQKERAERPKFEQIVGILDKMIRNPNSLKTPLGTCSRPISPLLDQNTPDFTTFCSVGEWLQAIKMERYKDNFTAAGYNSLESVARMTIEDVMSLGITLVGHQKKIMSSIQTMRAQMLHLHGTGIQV", "assay": "Selectivity interaction (KinomeScan (DiscoverX)) EUB0000618a EPHA7", "conditions": "at 10 µM"}}}
{"smiles": "Cn1cc(-n2cnc3c(NCc4nc5cc(Cl)c(Cl)cc5[nH]4)nc(N4CCOCC4)nc32)cn1", "values": [{"measurement": "% of control", "setting": "SRSF protein kinase 1", "result": 0.97, "unit": "%"}]}
{"smiles": "CC[C@@H]1[C@H](F)C(=O)N[C@@H]1COc1nccc2cc(C(N)=O)c(OC)cc12", "note": "[ZIMLOVISERTIB]", "values": [{"measurement": "% of inhibition", "setting": "[1]", "result": 5.2, "unit": "%"}, {"measurement": "% of inhibition", "setting": "[2]", "result": -5.8, "unit": "%"}, {"measurement": "% of inhibition", "setting": "[3]", "result": -1.3, "unit": "%"}]}
{"smiles": "CNC(=O)Nc1ccc(-c2nc(N3CC4CCC(C3)O4)c3cnn(C4CCC5(CC4)OCCO5)c3n2)cc1", "values": [{"measurement": "% of control", "setting": "[4]", "result": 55, "unit": "%"}]}
{"smiles": "CC[C@@H](Nc1c(C#N)c(-c2ccc(-c3cccc(C)c3F)cc2)nc2cnccc12)C(=O)O", "note": "[BAY-091]", "values": [{"measurement": "% of inhibition", "setting": "[5]", "result": 24, "unit": "%"}]}
{"smiles": "O[C@H]1CC[C@H](Nc2ncc3nc(Nc4c(F)cc(F)cc4F)n([C@H]4CCOC4)c3n2)CC1", "values": [{"measurement": "% of control", "setting": "[6]", "result": 7.8, "unit": "%"}, {"measurement": "% of control", "setting": "[7]", "result": 100, "unit": "%"}]}
